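1) Cells in 96-well plates. 2) Compound, 48 h, 5 concentrations. 3) Linear interpolation between surrounding doses. 4) Unreached endpoint = highest concentration. GI50 = concentration required for 50% inhibition of growth.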 Calls of active or inactive are those of the source. Rule as the data show it: active = GI50 up to about 1.1 µM and inactive = higher.
Tests used:
Assay in all cases: growth of human tumour cells (NCI), 48 h
MOLT-4 = test system: MOLT-4
UACC-62 = test system: UACC-62
SW-620 = test system: SW-620
LOX IMVI = test system: LOX IMVI
SK-MEL-5 = test system: SK-MEL-5
MCF7 = test system: MCF7
KM12 = test system: KM12
HCT-15 = test system: HCT-15
M14 = test system: M14
U-251 = test system: U-251
MDA-MB-435 = test system: MDA-MB-435
SR = test system: SR
OVCAR-8 = test system: OVCAR-8
SN12C = test system: SN12C
HCC 2998 = test system: HCC 2998
EKVX = test system: EKVX
ACHN = test system: ACHN
NCI-H522 = test system: NCI-H522
HCT-116 = test system: HCT-116
Malme-3M = test system: Malme-3M
K562 = test system: K562
SK-OV-3 = test system: SK-OV-3
TK-10 = test system: TK-10
RPMI-8226 = test system: RPMI-8226
SF-539 = test system: SF-539
NCI-H226 = test system: NCI-H226
MDA-MB-231 = test system: MDA-MB-231
MDA-N = test system: MDA-N
UACC-257 = test system: UACC-257
OVCAR-5 = test system: OVCAR-5
NCI-H460 = test system: NCI-H460
COLO 205 = test system: COLO 205
SF-295 = test system: SF-295
HOP-62 = test system: HOP-62
HOP-92 = test system: HOP-92
HL-60 = test system: HL-60
OVCAR-4 = test system: OVCAR-4
A498 = test system: A498
NCI-H23 = test system: NCI-H23
NCI/ADR-RES = test system: NCI/ADR-RES
SF-268 = test system: SF-268
CAKI-1 = test system: CAKI-1
SNB-19 = test system: SNB-19
BT-549 = test system: BT-549
Hs-578T = test system: Hs-578T
SK-MEL-2 = test system: SK-MEL-2
IGROV-1 = test system: IGROV-1
OVCAR-3 = test system: OVCAR-3
CCRF-CEM = test system: CCRF-CEM
786-0 = test system: 786-0
SK-MEL-28 = test system: SK-MEL-28
A549 = test system: A549
HT-29 = test system: HT-29
UO-31 = test system: UO-31
PC-3 = test system: PC-3
RXF 393 = test system: RXF 393
DU-145 = test system: DU-145
SNB-75 = test system: SNB-75

O=C(c1ccccc1)c1cc(-c2ccccc2)c(-c2ccccc2)[nH]c(=O)c1=O
GI50 (MOLT-4): 24.2 µM (inactive) | GI50 (UACC-62): 25.1 µM (inactive) | GI50 (SW-620): 37.2 µM (inactive) | GI50 (LOX IMVI): 34.5 µM (inactive) | GI50 (SK-MEL-5): 31.6 µM (inactive) | GI50 (MCF7): 31.5 µM (inactive) | GI50 (KM12): 35.8 µM (inactive) | GI50 (HCT-15): 28.3 µM | GI50 (M14): 41.2 µM (inactive) | GI50 (U-251): 37.8 µM (inactive) | GI50 (MDA-MB-435): 30.5 µM (inactive) | GI50 (SR): 24.1 µM (inactive) | GI50 (OVCAR-8): 37.4 µM (inactive) | GI50 (SN12C): 35.2 µM (inactive) | GI50 (HCC 2998): 26.9 µM (inactive) | GI50 (EKVX): 33.7 µM (inactive) | GI50 (ACHN): 63.5 µM (inactive) | GI50 (NCI-H522): 22.1 µM (inactive) | GI50 (HCT-116): 35.2 µM (inactive) | GI50 (Malme-3M): 49.3 µM (inactive) | GI50 (K562): 32.6 µM (inactive) | GI50 (SK-OV-3): > 100 µM (inactive) | GI50 (TK-10): 56.2 µM (inactive) | GI50 (RPMI-8226): 23.9 µM (inactive) | GI50 (SF-539): 31.3 µM (inactive) | GI50 (NCI-H226): 43.4 µM (inactive) | GI50 (MDA-MB-231): > 100 µM (inactive) | GI50 (MDA-N): 38.5 µM (inactive) | GI50 (UACC-257): 41.5 µM (inactive) | GI50 (OVCAR-5): 54.2 µM (inactive) | GI50 (NCI-H460): 34 µM (inactive) | GI50 (COLO 205): 27.2 µM (inactive) | GI50 (SF-295): 40.7 µM (inactive) | GI50 (HOP-62): 59.6 µM (inactive) | GI50 (HOP-92): 41.1 µM (inactive) | GI50 (HL-60): 15.7 µM (inactive) | GI50 (OVCAR-4): 33.7 µM (inactive) | GI50 (A498): 77.4 µM (inactive) | GI50 (NCI-H23): 19 µM (inactive) | GI50 (NCI/ADR-RES): 33.7 µM (inactive) | GI50 (SF-268): 50.5 µM (inactive) | GI50 (CAKI-1): 30.9 µM (inactive) | GI50 (SNB-19): 64.6 µM (inactive) | GI50 (BT-549): 22.5 µM (inactive) | GI50 (Hs-578T): 40.9 µM (inactive) | GI50 (SK-MEL-2): 24.3 µM (inactive) | GI50 (IGROV-1): 60 µM (inactive) | GI50 (OVCAR-3): 35.6 µM (inactive) | GI50 (CCRF-CEM): 15.2 µM (inactive) | GI50 (786-0): > 100 µM (inactive) | GI50 (SK-MEL-28): 42.2 µM (inactive) | GI50 (A549): 41.7 µM (inactive) | GI50 (HT-29): 36.6 µM (inactive) | GI50 (UO-31): 35.8 µM (inactive) | GI50 (PC-3): 36.6 µM (inactive)

O=C(CN1CCCCC1)c1ccc2[nH]c(=O)oc2c1
GI50 (RXF 393): > 100 µM (inactive) | GI50 (MOLT-4): > 100 µM (inactive) | GI50 (UACC-62): > 100 µM (inactive) | GI50 (SW-620): > 100 µM (inactive) | GI50 (LOX IMVI): > 100 µM (inactive) | GI50 (SK-MEL-5): > 100 µM (inactive) | GI50 (MCF7): > 100 µM (inactive) | GI50 (KM12): > 100 µM (inactive) | GI50 (HCT-15): > 100 µM | GI50 (M14): > 100 µM (inactive) | GI50 (U-251): > 100 µM (inactive) | GI50 (MDA-MB-435): > 100 µM (inactive) | GI50 (SR): > 100 µM (inactive) | GI50 (OVCAR-8): > 100 µM (inactive) | GI50 (SN12C): > 100 µM (inactive) | GI50 (EKVX): > 100 µM (inactive) | GI50 (ACHN): > 100 µM (inactive) | GI50 (HCT-116): > 100 µM (inactive) | GI50 (Malme-3M): > 100 µM (inactive) | GI50 (DU-145): > 100 µM (inactive) | GI50 (K562): > 100 µM (inactive) | GI50 (SK-OV-3): > 100 µM (inactive) | GI50 (TK-10): > 100 µM (inactive) | GI50 (RPMI-8226): > 100 µM (inactive) | GI50 (SF-539): > 100 µM (inactive) | GI50 (NCI-H226): > 100 µM (inactive) | GI50 (MDA-MB-231): > 100 µM (inactive) | GI50 (MDA-N): > 100 µM (inactive) | GI50 (UACC-257): > 100 µM (inactive) | GI50 (OVCAR-5): > 100 µM (inactive) | GI50 (NCI-H460): > 100 µM (inactive) | GI50 (COLO 205): > 100 µM (inactive) | GI50 (SF-295): > 100 µM (inactive) | GI50 (HOP-62): > 100 µM (inactive) | GI50 (HL-60): > 100 µM (inactive) | GI50 (SNB-75): 0.957 µM (active) | GI50 (A498): > 100 µM (inactive) | GI50 (NCI-H23): > 100 µM (inactive) | GI50 (NCI/ADR-RES): > 100 µM (inactive) | GI50 (SF-268): > 100 µM (inactive) | GI50 (CAKI-1): > 100 µM (inactive) | GI50 (SNB-19): > 100 µM (inactive) | GI50 (BT-549): > 100 µM (inactive) | GI50 (Hs-578T): > 100 µM (inactive) | GI50 (SK-MEL-2): > 100 µM (inactive) | GI50 (IGROV-1): > 100 µM (inactive) | GI50 (OVCAR-3): > 100 µM (inactive) | GI50 (CCRF-CEM): > 100 µM (inactive) | GI50 (786-0): > 100 µM (inactive) | GI50 (SK-MEL-28): > 100 µM (inactive) | GI50 (HT-29): > 100 µM (inactive) | GI50 (PC-3): > 100 µM (inactive)

O=C1NC(Cc2c[nH]c3ccccc23)C(=O)N2C(C3CCCCC3)c3[nH]c4ccccc4c3C[C@@H]12 (some centres undefined)
GI50 (RXF 393): 5.98 µM (inactive) | GI50 (MOLT-4): 5.97 µM (inactive) | GI50 (UACC-62): 15.3 µM (inactive) | GI50 (SW-620): 15.7 µM (inactive) | GI50 (LOX IMVI): 13.3 µM (inactive) | GI50 (SK-MEL-5): 12.8 µM (inactive) | GI50 (MCF7): 9.08 µM (inactive) | GI50 (KM12): 11.8 µM (inactive) | GI50 (HCT-15): 12.4 µM | GI50 (M14): 13.2 µM (inactive) | GI50 (U-251): 11.4 µM (inactive) | GI50 (MDA-MB-435): 11 µM (inactive) | GI50 (SR): 7.45 µM (inactive) | GI50 (OVCAR-8): 14.6 µM (inactive) | GI50 (SN12C): 8.26 µM (inactive) | GI50 (EKVX): 16 µM (inactive) | GI50 (ACHN): 17.7 µM (inactive) | GI50 (NCI-H522): 7.98 µM (inactive) | GI50 (HCT-116): 10.2 µM (inactive) | GI50 (Malme-3M): 13.1 µM (inactive) | GI50 (DU-145): 24.3 µM (inactive) | GI50 (K562): 10.8 µM (inactive) | GI50 (TK-10): 8.15 µM (inactive) | GI50 (RPMI-8226): 9.02 µM (inactive) | GI50 (NCI-H226): 24.2 µM (inactive) | GI50 (MDA-MB-231): 15.1 µM (inactive) | GI50 (MDA-N): 11.1 µM (inactive) | GI50 (UACC-257): 12.1 µM (inactive) | GI50 (OVCAR-5): 20.7 µM (inactive) | GI50 (COLO 205): 17.2 µM (inactive) | GI50 (SF-295): 24 µM (inactive) | GI50 (HOP-62): 18.2 µM (inactive) | GI50 (HOP-92): 15.4 µM (inactive) | GI50 (HL-60): 13.4 µM (inactive) | GI50 (OVCAR-4): 11.1 µM (inactive) | GI50 (A498): 15.2 µM (inactive) | GI50 (NCI-H23): 16.8 µM (inactive) | GI50 (NCI/ADR-RES): 11.7 µM (inactive) | GI50 (SF-268): 13.1 µM (inactive) | GI50 (CAKI-1): 18.3 µM (inactive) | GI50 (SNB-19): 22.3 µM (inactive) | GI50 (BT-549): 14.9 µM (inactive) | GI50 (Hs-578T): 2.18 µM (inactive) | GI50 (SK-MEL-2): 14.4 µM (inactive) | GI50 (IGROV-1): 13.8 µM (inactive) | GI50 (OVCAR-3): 2.38 µM (inactive) | GI50 (786-0): 11.4 µM (inactive) | GI50 (SK-MEL-28): 16.4 µM (inactive) | GI50 (A549): 10.9 µM (inactive) | GI50 (HT-29): 14.9 µM (inactive) | GI50 (UO-31): 14.1 µM (inactive) | GI50 (PC-3): 7.05 µM (inactive)
